{
  "source": "paper PMC9743467",
  "about": "(Matter, 2022)",
  "key": {"[1]": {"details": "source not given; cited from earlier work"}, "[2]": {"tested_on": "VSV-G PsV", "format": "cell-based, vesicular stomatitis virus"}, "[3]": {"tested_on": "SARS-CoV-2 (USA-WA1/2020)", "format": "in vivo, K18-hACE2 mice infected with SARS-CoV-2", "details": "n = 8"}, "[4]": {"tested_on": "SARS-CoV-2 PsV", "format": "cell-based"}, "[5]": {"format": "in vivo, K18-hACE2 mice", "details": "n = 8"}, "[6]": {"tested_on": "SARS-CoV-2 PsV", "format": "cell-based", "remark": "listed apart in the source"}, "[7]": {"tested_on": "SARS-CoV PsV", "format": "cell-based"}},
  "data": [
    {"substance": "ACE2: recombinant human angiotensin-converting enzyme 2, soluble, R&D Systems", "values": [
      {"measurement": "pI", "setting": "[1]", "result": "≈ 5.36"},
      {"measurement": "inhibition of VSV-G PsV infection", "setting": "[2]", "result": "This trend is not observed"},
      {"measurement": "viral load in SARS-CoV-2-infected lungs", "setting": "[3]", "result": "negligible effect on viral load"},
      {"measurement": "time at which inhibition equals that of empty filaments", "setting": "[4]", "result": "≤ 6", "unit": "h"},
      {"measurement": "body weight loss", "setting": "[5]", "result": "similar"},
      {"measurement": "inhibition of SARS-CoV-2 PsV infection", "setting": "[6]", "result": "strongly inhibited"},
      {"measurement": "inhibition of SARS-CoV PsV infection", "setting": "[7]", "result": "strongly inhibited"}
    ]}
  ]
}
